Measured values published in patent US20110263696A1, “PROANTHOCYANIDINS FROM CINNAMON AND ITS WATER SOLUBLE EXTRACT INHIBIT TAU AGGREGATION” (priority 2007, published 2011).

Key:
tau polypeptides = assay: Light scattering measurements (absorbance at 350 nm) of tau aggregation; format: biochemical, human
Method: FIG. 11. Dose response of cinnamon (oxidized) on tau aggregation. […] In this experiment, cinnamon was incubated overnight in 10 mM NH4OH.
FIG. 12. Effect of cinnamon A trimer on light scattering of tau.
In one illustrative embodiment of the invention, the effects of cinnamon extract or purified cinnamon proanthocyanidins on tau aggregation can be followed readily in a spectrophotometer by measuring the change in absorbance at 350 nm. The association of tau promoted by heparin causes an increase in absorbance. […] Different buffers and temperatures may be used if desired to study factor influencing aggregation.

tau filaments = assay: Transmission electron microscopy of tau filaments; format: biochemical; settings: aggregating conditions
Description: In one illustrative embodiment of the invention, transmission electron microscopy, is a highly desirable technique for studies of aggregation with heparin and water or with heparin and purified proanthocyanidin or cinnamon extracts from Cinnamomum zeylanicum, Cinnamomum cassia, or Cinnamomum loueirii. It provides definition of what the aggregates actually are, e.g., filaments and their abundance, sizes, and shapes.

[1] = system: tau-dependent MT assembly; assay: Tau-dependent microtubule assembly, turbidity OD350; format: biochemical; settings: tubulin 5 uM, tau187, turbidity OD350
Method: FIG. 9. […] Tubulin (5 uM) was incubated (a) alone, or with (b) CE, (c) tau or (d) both. MT assembly was monitored by turbidity at OD350 in a continuous spectrophotometric assay.
The normal function of tau in neurons is to regulate MT assembly and dynamics. Thus it is desirable for a potential AD therapeutic to inhibit tau aggregation but not impede normal tau function. To test this, purified tubulin was incubated with either CE, tau187 or both, and MT assembly was monitored by solution turbidity. […] The reason for this is unclear, but since tau is normally an unstructured molecule, it is possible that CE promotes a conformer in tau that favors MT binding. Thus CE and proanthocyanidins appear to act as specific inhibitors of tau aggregation that are free of side effects on normal neuron function.

adipocyte cells = settings: 0.1 mg/ml PA trimer; Graves et al. 2001; cited from earlier work
tau187 = biological target: T1, tau187 (Homo sapiens, UniProt P10636); assay: UV absorbance spectra, binding to tau; settings: trimer 15 uM, 0-17.6 uM tau187, isosbestic point
T1 construct: his; made in house; host or cells: bacteria
Method: FIG. 2. UV absorbance spectra of purified A-type proanthocyanidin trimer as a function of increasing tau concentration. The curves from top to bottom (at A280) are as follows: 0 uM; 4.4 uM; 8.8 uM; 17.6 uM tau^187; proanthocyanidin trimer=15 uM. As is known in the art, the isobestic points are found where the curves overlap.
As shown by the data disclosed in the various figures, proanthocyanidins bind to tau and inhibit tau aggregation. In illustrative experiments, full-length tau and an engineered truncation fragment of tau (tau187) were generated by over-expression of the recombinant human protein in bacteria followed by purification to homogeneity by conventional chromatography. […] The UV spectra display an isosbestic point consistent with a specific binding mechanism. […] In these experiments, heparin-induced aggregation of tau into PHF-like fibers is routinely monitored by four methods: 1) enhanced Thioflavin S fluorescence emission; 2) increased turbidity measured by OD350; 3) ultracentrifugation of sarkosyl-treated samples, and 4) electron microscopy. […] To ensure that proanthocyanidin molecules were not simply binding to and precipitating tau in a non-specific manner, the amount of tau that fractionated with the pellet vs. supernatant after high-speed ultracentrifugation was analyzed.

tau = assay: Tau aggregation / AD fiber formation in vitro (method not specified); format: biochemical
Method: In a first illustrative embodiment of an extraction procedure of the invention, an extract is obtained by using nanopure water equal to 10 times the weight of cinnamon. The mixture is heated for 10 minutes at 95° C., cooled, and centrifuged at 14,000 rpm. The nearly clear supernatant is centrifuged again and then the clear supernatant is filtered through 0.4 and 0.2 micron filters and lyophilized. A fluffy pale tan colored powder can be obtained.

Full-length tau = biological target: T2, Full-length tau (Homo sapiens, UniProt P10636); assay: Ultracentrifugation and SDS-PAGE of pellet vs supernatant, full-length tau; format: biochemical; settings: 200 uM trimer; 45 min; 100,000 g x 60 min (FIG. 3b)
T2 construct: full-length tau and an engineered truncation fragment of tau (tau187) were generated by over-expression of the recombinant human protein in bacteria; made in house; host or cells: bacteria
Method: (§1) FIG. 3. Proanthocyanidins inhibit tau aggregation. A) Turbidity assay. Aggregation of FL-tau (50 uM) was initiated with heparin (0.1 mg/ml) in 20 mM NaPO4, pH 7.0. Curve 1: no proanthocyanidin; Curve 2: 200 uM purified A-type trimer. B) After 45 min, reactions were centrifuged at 100,000 g×60 min. The amount of tau in the pellets (P) vs. supernatants (S) were examined by SDS-PAGE. Markers (top to bottom) are 97, 66, 45 kDa. C, D) EM after aggregation for 45 min. Scale bars=500 nm; C) no proanthocyanidin, D) 200 uM purified A-type trimer.
FIG. 4. Cinnamon extract inhibits tau aggregation. […] Samples were then treated with 1% sarkosyl for 1 hr, centrifuged (105,000 g×1 hr), and the pellets (P) versus supernatants (S) then analyzed by SDS-PAGE. […]
(§2) As shown by the data disclosed in the various figures, proanthocyanidins bind to tau and inhibit tau aggregation. […] In these experiments, heparin-induced aggregation of tau into PHF-like fibers is routinely monitored by four methods: 1) enhanced Thioflavin S fluorescence emission; 2) increased turbidity measured by OD350; 3) ultracentrifugation of sarkosyl-treated samples, and 4) electron microscopy. […] To ensure that proanthocyanidin molecules were not simply binding to and precipitating tau in a non-specific manner, the amount of tau that fractionated with the pellet vs. supernatant after high-speed ultracentrifugation was analyzed.

FL-tau [2] = biological target: T3, FL-tau (Homo sapiens, UniProt P10636); assay: Turbidity assay of heparin-induced aggregation, FL-tau; format: biochemical; settings: FL-tau 50 uM, heparin 0.1 mg/ml, pH 7.0; trimer 200 uM (FIG. 3a)
T3 construct: full-length tau and an engineered truncation fragment of tau (tau187) were generated by over-expression of the recombinant human protein in bacteria; made in house; host or cells: bacteria
Method: as §1, §2

[3] = system: Full-length tau or tau 187; assay: Gel electrophoresis of sarkosyl pellets vs supernatants; format: biochemical, human
Method: In one illustrative embodiment of the invention, gel electrophoresis also can be used to study effects on aggregation. The advantage here is that simple equipment is needed for these measurements but the system provides less definition of the effects of the inhibitors than electron microscopy. Full-length tau or tau 187 (50 uM) is induced to undergo aggregation with heparin (0.1 mg/ml) for 16 hours at room temperature in the presence of varying concentrations of cinnamon extract or cinnamon proanthocyanidin type A trimer. Samples are then treated with 1% sarkosyl for 1 hr, centrifuged (105,000 g×1 hr), and the pellets (P) versus supernatants (S) then analyzed by SDS-PAGE. The increase in the ratio of tau in the pellet compared to the supernatant is a measure of aggregation and cinnamon extract or purified proanthocyanidin is found to decrease this ratio.

FL-tau [4] = biological target: T3, FL-tau; assay: Electron microscopy of FL-tau fibers; format: biochemical; settings: FL-tau 50 uM, heparin 0.1 mg/ml; trimer 200 uM (FIG. 3d)
Method: as §1, §2

T3 sequence (P10636 1-441 isoform P10636-8): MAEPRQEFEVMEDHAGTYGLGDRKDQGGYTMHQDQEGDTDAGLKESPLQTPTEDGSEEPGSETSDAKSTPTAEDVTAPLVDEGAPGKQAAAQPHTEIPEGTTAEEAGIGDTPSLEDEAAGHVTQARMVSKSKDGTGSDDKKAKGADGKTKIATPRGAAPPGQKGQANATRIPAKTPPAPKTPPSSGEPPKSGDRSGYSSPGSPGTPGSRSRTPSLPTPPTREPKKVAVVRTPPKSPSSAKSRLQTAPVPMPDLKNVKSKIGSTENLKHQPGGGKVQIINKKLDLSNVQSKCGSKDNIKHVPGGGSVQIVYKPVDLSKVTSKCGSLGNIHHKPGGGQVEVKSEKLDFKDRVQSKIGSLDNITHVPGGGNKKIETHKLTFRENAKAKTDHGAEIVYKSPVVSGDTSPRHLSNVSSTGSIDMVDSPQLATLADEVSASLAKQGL
Sequence of tau (P10636 572-758 limits assumed): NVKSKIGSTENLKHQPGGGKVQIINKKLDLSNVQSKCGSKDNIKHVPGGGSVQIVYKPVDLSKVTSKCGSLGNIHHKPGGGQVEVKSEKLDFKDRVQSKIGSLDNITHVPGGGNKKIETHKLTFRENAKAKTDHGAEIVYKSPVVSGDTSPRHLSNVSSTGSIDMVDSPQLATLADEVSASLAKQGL
T1 sequence (P10636 572-758 limits assumed): as above
T2 sequence (P10636 1-441 isoform P10636-8): as the sequence (P10636 1-441 isoform P10636-8) above
Sequence of Full-length tau or tau 187 (P10636 572-758 limits assumed): as the sequence (P10636 572-758 limits assumed) above
Sequence of tau filaments (P10636 572-758 limits assumed): as above
Sequence of tau polypeptides (P10636 572-758 limits assumed): as above

What does the source list for “A-linked proanthocyanidin trimer [A-type trimer]”?
Inhibition of tau aggregation by light scattering (tau polypeptides): inhibits the aggregation; Formation of tau filaments by transmission electron microscopy (tau filaments): inhibited; Effect on tau-dependent MT assembly [1]: does not inhibit; Glucose uptake (adipocyte cells): increase in glucose uptake; Binding to tau by change in UV absorbance spectrum (tau187): displays affinity for monomeric tau; Binding to tau by change in UV absorbance spectrum (tau187; listed as proanthocyanidin A): binds directly to tau; Concentration that completely inhibits tau aggregation in vitro (tau; complete inhibition of tau aggregation/AD fiber formation): 0.17 mg/ml PA trimer; Effectiveness of purified PA trimer relative to CE (tau; same amount of PA trimer, fraction of CE effect): ½; Tau in pellet vs supernatant after ultracentrifugation (Full-length tau): remain in the soluble fraction; Inhibition of FL-tau aggregation (turbidity) (FL-tau [2]): dramatically inhibited; Tau aggregation by gel electrophoresis [3]: less aggregation of tau; FL-tau fibers by EM after aggregation for 45 min (FL-tau [4]): short fibers that were very much less abundant
